Values of other authors, collected in patent US20100209356A1, “CONTRAST AGENTS” (priority 2007, published 2010).

Conditions: high risk patients; iodixanol compared with a low-osmolar, non-ionic contrast medium

## CC(=O)N(CC(O)CN(C(C)=O)c1c(I)c(C(=O)NCC(O)CO)c(I)c(C(=O)NCC(O)CO)c1I)c1c(I)c(C(=O)NCC(O)CO)c(I)c(C(=O)NCC(O)CO)c1I (stereo not shown) [iodixanol]
  nephropathy induced by contrast medium: less likely to develop
